Assay results from patent publication US10265276B2, “Pharmaceutical composition for preventing or treating arthritis or inflammatory disease containing 2-methoxy-4-(3-(4-methoxyphenyl)propyl-1-en-1-yl)phenol as active ingredient” (CHUNGBUK NATIONAL UNIVERSITY INDUSTRY-ACADEMIC COOPERATION …, priority 2015, dated 2019).

Legend:
[1] = test system: CAIA-induced C57BL/6 mice; assay: Collagen antibody-induced arthritis (CAIA) model; type: in vivo, mouse
Protocol: 14. Induction of rheumatoid arthritis in C57BL/6 mice: To induce rheumatoid arthritis, anti-collagen-II mAbs (CII-Ab, Arthrogen-CIA Arthritogenic Monoclonal Antibody, #53010: Chondrex, Inc., WA, USA) were intraperitoneally (i.p.) injected into 7-week-old male mice on the first day, and 50 μg of LPS was injected on the third day. To evaluate the severity of arthritis, a scoring system was applied according to the criteria.
0. No erythema and swelling are observed.
1. Slight erythema is observed in tarsals and ankle joints.
2. Slight erythema and swelling are observed from an ankle joint to the midfoot.
3. Erythema and swelling extending from ankle joints to the metatarsals are observed.
4. Erythema and severe swelling were observed throughout the ankles, feet, and fingers.
The sum of final scores was recorded daily until the sum reached 16. On the 18th day, each of the mice was anesthetized, and then located on a radiographic view box. Thereafter, a location of each of the mice was adjusted so that the mouse was disposed at a distance of 90 cm from an X-ray source. The radioanalysis on hind legs with arthritis was performed by irradiating the hind legs at […] for 0.01 seconds using an X-ray machine (BLD-150RK, Hradec Kralove, Czech Republic).
15. Immunohistochemical assay: An immunohistochemical assay was carried out using an avidin-biotin-peroxidase method known in the art. Each of joint tissue samples collected from the mice was fixed with formalin, and embedded in paraffin. These samples were continuously microtomed into sections with a thickness of 4 μm. Each of the sections was stained with haematoxylin/eosin (H&E), anti-COX-2 and anti-iNOS antibodies (Caymen Chemical, Ann Arbor, Mich.).
Referring to FIG. 10(A), MMPP (5 mg/kg, p.o.) (dissolved in 100 μL of PBS including 0.5 μL of DMSO), a vehicle (a negative control), or indomethacin (5 mg/kg, p.o./dissolved in […] of PBS after the dissolution) was administered daily to 7-week-old male C57BL/6 mice for 18 days.

[2] = test system: NF-κB and STAT3; assay: EMSA and Western blotting of CAIA-induced ankle joint tissues; type: in vivo, mouse
Protocol: In addition, the DNA binding activities of NF-κB and STAT3 were determined by EMSA. The same amount of the total proteins (20 μg/Lane) was subjected to 10% SDS-PAGE, and STAT3, P-STAT3, p50, p65, IKK, 1 KB, and p-1lκB were detected through Western blotting. A β-actin protein or histone H was used as the control. As a result, it can be seen that MMPP inhibited the STAT3 DNA-binding activity (FIG. 12(A)), the NF-κB STAT3 DNA-binding activity (FIG. 12(B)), nuclear translocation of pSTAT3, p50 and p65, and phosphorylation of IkB, IKKb and IKKa in the CAIA-induced ankle joint tissues (FIGS. 12(C) and 12(D))

[3] = target: T1, STAT3 (Mus musculus, UniProt P42227); assay: Pull-down assay, MMPP conjugated to Sepharose 6B beads; type: binding; conditions: recombinant STAT3 protein and cell lysate containing STAT3 from RAW 264.7 cells
T1 construct: a cell lysate containing a recombinant STAT3 protein or a STAT3 protein; endogenous in cells; host or cells: RAW 264.7
T1 sequence (P42227 whole entry): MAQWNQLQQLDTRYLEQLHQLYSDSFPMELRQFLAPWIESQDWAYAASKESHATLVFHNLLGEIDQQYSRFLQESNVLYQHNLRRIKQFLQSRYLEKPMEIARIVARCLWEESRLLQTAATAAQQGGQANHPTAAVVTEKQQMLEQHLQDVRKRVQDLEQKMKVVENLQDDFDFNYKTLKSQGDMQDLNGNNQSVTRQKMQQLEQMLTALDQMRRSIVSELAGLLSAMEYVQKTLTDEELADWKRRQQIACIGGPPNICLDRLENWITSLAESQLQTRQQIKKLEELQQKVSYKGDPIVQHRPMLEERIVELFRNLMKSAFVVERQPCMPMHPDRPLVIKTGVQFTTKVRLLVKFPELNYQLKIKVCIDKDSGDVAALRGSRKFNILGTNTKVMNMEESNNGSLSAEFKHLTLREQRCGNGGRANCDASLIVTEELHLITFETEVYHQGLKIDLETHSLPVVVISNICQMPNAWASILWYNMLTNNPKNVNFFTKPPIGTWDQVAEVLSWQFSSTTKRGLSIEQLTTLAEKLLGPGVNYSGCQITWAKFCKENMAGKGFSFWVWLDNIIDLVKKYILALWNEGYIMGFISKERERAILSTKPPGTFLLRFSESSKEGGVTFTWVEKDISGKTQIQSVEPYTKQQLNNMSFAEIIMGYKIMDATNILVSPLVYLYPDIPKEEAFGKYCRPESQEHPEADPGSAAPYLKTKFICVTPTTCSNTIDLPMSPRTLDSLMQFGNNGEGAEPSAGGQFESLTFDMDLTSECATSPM
Protocol: As a method for isolating a protein complex, a pull-down assay is an assay for checking a protein-protein interaction. To identify a protein interacting with MMPP, MMPP was bound to […] epoxy-activated Sepharose 6B (Sigma, St Louis, Mo., United States).
To check the interaction between MMPP and STAT3, a pull-down assay was carried out. MMPP was conjugated to epoxy-activated Sepharose 6B. A pull-down assay was performed using an interaction between a cell lysate containing a recombinant STAT3 protein or a STAT3 protein and MMPP conjugated to Sepharose 6B beads. […] Referring to FIG. 2(D), it can also be seen that the binding of MMPP to mutant STAT3 Thr456A was reduced, compared to the STAT3.

[4] = test system: NF-κB; assay: EMSA and Western blotting of the NF-κB pathway in LPS-treated RAW 264.7 cells; type: cell-based, mouse
Protocol: 10. EMSA assay (Electromobility shift assay): RAW 264.7 cells were cultured for 24 hours to perform an EMSA assay. The relative density of a protein band was scanned using MyImage, and qualitatively analyzed using Labworks 4.0 software (UVP, Inc.).
12. Western blotting assay: A whole cell lysate, a cytosolic extract, and a nuclear extract were obtained. SDS-PAGE and Western blotting assays were carried out as disclosed in published Documents 1 and 2. Simply speaking, the cells were seeded in a 6-well plate at a density of 5×10^5 cells/well, and cultured for 24 hours. Thereafter, the cells were treated with MMPP or DMSO for 24 hours. After the treatment, the cells were washed twice with PBS, and then lyzed. Proteins of the lyzed cells were separated on 10 to 15% SDS-PAGE. The proteins were transferred to a PVDF membrane, and the PVDF membrane was blocked at room temperature for 2.5 hours in a TB S/T buffer containing 5% skim milk. The membrane to which the proteins were transferred was analyzed using, as primary antibodies, murine monoclonal antibodies against Cdk2, Cdk4, Cdk6, cyclin B1, cyclin D1, cyclin E1, Bcl-2, Bax, caspase-3, caspase-8, STAT3, phspho-STAT3, (3-actin, and histone hl. Expression of the proteins was visualized using a chemiluminescence reagent (Amersham Pharmacia Biotech, Inc., Buckinghamshire, UK), and measured using a digital chemiluminescence imaging system equipped with a CCD camera (Fusion-FX, Fisher BioTech, Ltd., Wembley, Australia).
RAW 264.7 cells were treated with LPS alone or a combination of LPS and MMPP for 30 minutes, and the DNA binding activities of NF-κB and STAT3 were examined using an electrophoretic mobility shift assay (EMSA). Also, the same amount of the total proteins (20 μg/Lane) was subjected to 10% SDS-PAGE, and STAT3, P-STAT3, p50, p65, IKK, lκB, and p-lκB were detected through Western blotting. A (3-actin protein or histone H was used as the control.

[5] = 5 mg/kg, p.o. daily, last (18th) day
[6] = LPS-induced, co-treated with MMPP

COc1ccc(C/C=C/c2ccc(O)c(OC)c2)cc1 [MMPP, 2-methoxy-4-(3-(4-methoxyphenyl)prop-1-en-1-yl)phenol]
degrees of bone destruction and fibrosis in ankle joints (histopathologic evaluation) ([1]; 5 mg/kg): remarkably reduced | tissue edema and bone destruction of hind legs (radiographic inspection) ([1]; 5 mg/kg): significantly reduced | clinical score [1, 5]: approximately 4.67 | clinical score lower than that of the CAIA group [1, 5]: 66.5% | anti-arthritic effect in CAIA model ([1]; mouse, in vivo): had an anti-arthritic effect | NF-κB STAT3 DNA-binding activity [2]: inhibited | STAT3 DNA-binding activity [2]: inhibited | nuclear translocation of pSTAT3, p50 and p65 [2]: inhibited | phosphorylation of IkB, IKKb and IKKa [2]: inhibited | interaction with STAT3 in pull-down assay [3]: mediated the interaction | LPS-induced phosphorylation of IKKb and IKKa [4]: inhibited | DNA binding activity and transcriptional activity of NF-κB [4, 6]: reduced in a concentration-dependent manner | IκB degradation [4, 6]: reduced in a concentration-dependent manner | nuclear translocation of NF-κB subunits p65 and p50 [4, 6]: reduced in a concentration-dependent manner
